Earlier results on 2 molecules are cited in US10703699B2, “Solubilization of pterostilbene and resveratrol for aqueous beverages” (Ironstone Separations, Inc., priority 2013, dated 2020).

The conditions of data set [1]: animal studies.

Take “trans-3,5-dimethoxy-4-hydroxystilbene [Pterostilbene]”: the “Solubility in aqueous media” value is listed as “very low”. Also, in data set [1], the bioavailability is 80%.

For `Oc1ccc(/C=C/c2cc(O)cc(O)c2)cc1` [Resveratrol, 3,5,4′-trihydroxy-trans-stilbene], the bioavailability in data set [1] was 20%.

The term bioavailability denotes the share of a dose that reaches the circulation, judged against a reference dose that is usually intravenous.
